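Grown in 96-well plates, cells were treated for 48 hours with each compound at five concentrations. Insufficient inhibition: endpoint recorded as highest concentration tested. GI50 is the concentration that inhibits growth by half. Definition used: TGI = concentration required for complete inhibition of growth.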
Experiments:
Experiment in all cases: NCI-60 cell line screen, 48 h
SF-295 CNS = tested on: SF-295 CNS
SF-539 CNS = tested on: SF-539 CNS
BT-549 breast = tested on: BT-549 breast
TK-10 renal = tested on: TK-10 renal
SNB-19 CNS = tested on: SNB-19 CNS
SW-620 colon = tested on: SW-620 colon
A498 renal = tested on: A498 renal
PC-3 prostate = tested on: PC-3 prostate
MDA-MB-435 = tested on: MDA-MB-435
SK-OV-3 ovarian = tested on: SK-OV-3 ovarian

| SMILES | GI50 (SF-295 CNS) | TGI (SF-295 CNS) | GI50 (SF-539 CNS) | TGI (SF-539 CNS) | GI50 (BT-549 breast) | TGI (BT-549 breast) | GI50 (TK-10 renal) | TGI (TK-10 renal) | GI50 (SNB-19 CNS) | TGI (SNB-19 CNS) | GI50 (SW-620 colon) | TGI (SW-620 colon) | GI50 (A498 renal) | TGI (A498 renal) | GI50 (PC-3 prostate) | TGI (PC-3 prostate) | GI50 (MDA-MB-435) | TGI (MDA-MB-435) | TGI (SK-OV-3 ovarian) |
| --- | --- | --- | --- | --- | --- | --- | --- | --- | --- | --- | --- | --- | --- | --- | --- | --- | --- | --- | --- |
| COc1cc(N(CCCl)CCCl)ccc1/C=N\NC(=O)c1cccnc1 | 4.31 µM | 35.7 µM | 27.3 µM | > 100 µM | 20.9 µM | 89.5 µM | 16.9 µM | 53.5 µM | 52.8 µM | > 100 µM | 30.4 µM | > 100 µM | 0.523 µM | 1.98 µM | 21.4 µM | > 100 µM | 30.3 µM | > 100 µM |  |
| COc1ccc(-c2cc(=O)c3cc(O)ccc3o2)c(OC)c1OC |  | 69.2 µM |  | > 100 µM |  |  |  | > 100 µM |  | > 100 µM |  | > 100 µM |  |  |  |  |  |  | 99.1 µM |
| C=C(C)[C@H]1CC(=O)[C@@]2(C)C[C@H]3O[C@]3(C)CC/C=C(\C)CC[C@H]12 |  | > 100 µM |  | > 100 µM |  |  |  | 71.1 µM |  | > 100 µM |  | > 100 µM |  | 73.9 µM |  | 86.2 µM |  | > 100 µM | > 100 µM |
| O=C(CC(=O)N1N=C(N(c2ccccc2)c2ccccc2)CC1c1ccccc1)Nc1cccc(Cl)c1 (stereo not given) |  | > 100 µM |  | > 100 µM |  | > 100 µM |  | > 100 µM |  | > 100 µM |  | > 100 µM |  |  |  | > 100 µM |  | > 100 µM | > 100 µM |
| CN(C)NC1=NS(=O)(=O)c2cc3c(=O)n(C)[nH]c3cc2S1 |  | > 10 µM |  | > 10 µM |  | > 10 µM |  | > 10 µM |  | > 10 µM |  | > 10 µM |  | > 10 µM |  | > 10 µM |  |  | > 10 µM |
| NC(CSCSCC(N)C(=O)O)C(=O)O (stereo not given) |  | > 225 µM |  | > 225 µM |  |  |  |  |  | > 225 µM |  | > 225 µM |  | > 225 µM |  |  |  |  | > 225 µM |
| CN1CCN(c2n[nH]c(=O)c3c2nnn3C2CCCCC2)CC1 |  | > 100 µM |  | > 100 µM |  | > 100 µM |  | > 100 µM |  | > 100 µM |  | > 100 µM |  | > 100 µM |  | > 100 µM |  | > 100 µM |  |
| Cc1cccc(N=N/C(=N\NC(=O)c2cc(Cl)ccc2O)c2ccc(N(CCC#N)CCC#N)cc2C)c1 |  | > 100 µM |  | > 100 µM |  | > 100 µM |  | 76.9 µM |  | > 100 µM |  | > 100 µM |  |  |  | > 100 µM |  | > 100 µM | > 100 µM |
| COc1cc(OC)c(/C=N\Nc2nc3ccccc3c(=O)n2-c2ccccc2)c(OC)c1 |  | 65.1 µM |  | 39.3 µM |  |  |  | > 66 µM |  | 78.6 µM |  | > 100 µM |  | 41.1 µM |  | 53.7 µM |  | > 72.7 µM | 77.6 µM |
| O=C(O)c1ccc(Nc2cnc3cc(C(F)(F)F)ccc3n2)cc1 |  | > 100 µM |  | > 100 µM |  |  |  | > 100 µM |  | > 100 µM |  | > 100 µM |  |  |  | > 100 µM |  | > 100 µM |  |
| CCCCCCc1cc2cc(C(=O)Nc3cccc(F)c3)c(=N)oc2cc1O |  | 15.9 µM |  | 19.2 µM |  | 6.19 µM |  |  |  | 23.9 µM |  | > 100 µM |  | 15 µM |  | 14 µM |  | 6.51 µM | 13.3 µM |
| c1ccc2c(c1)-c1ccccc1C2NC1=NCCO1 |  | > 100 µM |  | 49.6 µM |  |  |  | 83.6 µM |  | > 100 µM |  | > 100 µM |  | 34 µM |  | 95.3 µM |  | 53 µM | > 100 µM |
| C/C(CCN(C)C)=N\OC(=O)c1ccccc1 |  | > 100 µM |  | > 100 µM |  |  |  | > 100 µM |  | > 100 µM |  | > 100 µM |  | > 100 µM |  |  |  |  | > 100 µM |
| O=C(Nc1ccc(Cl)cc1)c1cc(S(=O)(=O)N2CCNNC2=O)c(S)cc1Cl |  | > 100 µM |  | > 100 µM |  | > 100 µM |  | > 100 µM |  | > 100 µM |  | > 100 µM |  | > 100 µM |  | > 100 µM |  | > 100 µM |  |
| N=c1oc2cc(O)ccc2cc1C(=O)Nc1cccc2ccccc12 |  | 23.2 µM |  |  |  | 11.5 µM |  | 7.68 µM |  | 35.4 µM |  | 45.9 µM |  | 18.7 µM |  | 10.2 µM |  | 6.54 µM | 27.6 µM |
| O=C1OC(c2ccccc2Br)=N/C1=C/c1ccccc1 |  | > 100 µM |  | 37.9 µM |  |  |  | > 100 µM |  | 96.8 µM |  | > 100 µM |  | > 100 µM |  | > 100 µM |  | 93.7 µM | > 100 µM |
| O[C@@]12Cc3c([nH]c4ccccc34)[C@@H]3Oc4c(-c5ccccc5)ccc5c4[C@@]31CCN(CC1CC1)[C@@H]2C5 |  | 3.5 µM |  |  |  | 23.4 µM |  |  |  | 3.95 µM |  | 4.61 µM |  | 2.79 µM |  | 3.76 µM |  | 3.27 µM | 10.7 µM |
| NC1NCCC(=O)N1CCc1c[nH]c2ccccc12 (stereo not given) |  | 64.6 µM |  | 31.5 µM |  |  |  | 51.7 µM |  | > 100 µM |  | 42 µM |  | 27.9 µM |  | 44.1 µM |  | 30.7 µM | > 100 µM |
| CN(/N=C/C=N/N(C)C1=NCCN1)C1=NCCN1 |  | > 100 µM |  | > 100 µM |  | > 100 µM |  | > 100 µM |  | > 100 µM |  | > 100 µM |  |  |  | > 100 µM |  | > 100 µM | > 100 µM |
| COC(=O)c1c2c(cc3c1CC1(C3)Cc3cc4c(c(C(=O)OC)c3C1)CCC4)CCC2 |  | > 100 µM |  | > 100 µM |  |  |  | > 100 µM |  |  |  |  |  | > 100 µM |  | > 100 µM |  | > 100 µM | > 100 µM |
| C=C(C)COc1cc(NC(=S)OC(C)C)ccc1Cl |  | 29.3 µM |  | 30 µM |  | 24.3 µM |  | 29.3 µM |  | 33.4 µM |  | 27.6 µM |  |  |  | 28.6 µM |  | 28.6 µM | 38.1 µM |
| C[C@@H](c1ccccc1)N1CO[C@@]2(C#Cc3ccc4c(c3)OCO4)CCC[C@@H]12 |  | 28.1 µM |  |  |  |  |  | 28.8 µM |  | 30.3 µM |  |  |  |  |  | 27.1 µM |  | 28.2 µM | 34.5 µM |
| Cc1cc(N=Cc2c(CO)cnc(C)c2O)c(N=Cc2c(CO)cnc(C)c2O)cc1C |  | > 100 µM |  | > 100 µM |  |  |  | > 100 µM |  | > 100 µM |  | > 100 µM |  | > 100 µM |  | > 100 µM |  | > 100 µM | > 100 µM |

Source: PubChem BioAssay (NCI)
